Measured values reported in PubChem BioAssay AID1259407 (Chemical Carcinogenesis Research Information System (CCRIS), 2018).
The source made the active and inactive calls. How the calls were made is not given here.

Tested on: CCRIS mutagenicity, Ames/micronucleus/aberration tests
Assay: CCRIS mutagenicity studies

Nc1ccccc1
mutagenic call (End Point: IN VITRO CHROMOSOMAL ABERRATIONS, Test System: CHINESE HAMSTER OVARY CELLS, Metabolic Activation: NONE): inactive; negative | mutagenic call (End Point: IN VITRO CHROMOSOMAL ABERRATIONS, Test System: CHINESE HAMSTER OVARY CELLS, Metabolic Activation: RAT, LIVER, S-9, AROCLOR 1254): active; positive | mutagenic call (End Point: IN VITRO MICRONUCLEUS, Test System: CHL/IU CELLS, Metabolic Activation: RAT, LIVER, S-9, PHENOBARBITAL AND 5,6-BENZOFLAVONE): active; positive | mutagenic call (End Point: IN VIVO MICRONUCLEUS, Test System: BONE MARROW, Species: MOUSE, Strain/Sex: B6C3F1/MALE, Route: GAVAGE): active; positive | mutagenic call (End Point: In vivo chromosomal aberrations, Test System: Bone marrow erythrocytes, Species: Rat, Strain/Sex: PVG/Male, Route: Oral): active; positive (structural changes) at 500 mg/kg (p<0.01) | mutagenic call (End Point: In vivo micronucleus, Test System: Bone marrow erythrocytes, Species: Mouse, Strain/Sex: CRH/Male, Route: Intraperitoneal): active; positive (p<0.05) | mutagenic call (Test System: AMES SALMONELLA TYPHIMURIUM, Strain/Indicator: TA97, Metabolic Activation: NONE, Method: STANDARD PLATE): inactive; negative | mutagenic call (Test System: AMES SALMONELLA TYPHIMURIUM, Strain/Indicator: TA97, Metabolic Activation: RAT, LIVER, S-9, AROCLOR 1254, Method: STANDARD PLATE): inactive; negative | mutagenic call (Test System: AMES SALMONELLA TYPHIMURIUM, Strain/Indicator: TA98(NR), Metabolic Activation: NONE, Method: PREINCUBATION): inactive; negative | mutagenic call (Test System: AMES SALMONELLA TYPHIMURIUM, Strain/Indicator: TA98(NR), Metabolic Activation: RAT, LIVER, S-9, AROCLOR 1254, Method: PREINCUBATION): inactive; negative | mutagenic call (Test System: AMES SALMONELLA TYPHIMURIUM, Strain/Indicator: TA98, Metabolic Activation: HAMSTER, LIVER, S-9, AROCLOR 1254, Method: STANDARD PLATE): inactive; negative | mutagenic call (Test System: AMES SALMONELLA TYPHIMURIUM, Strain/Indicator: TA98, Metabolic Activation: HAMSTER, LIVER, S-9, Method: STANDARD PLATE): inactive; negative | mutagenic call (Test System: AMES SALMONELLA TYPHIMURIUM, Strain/Indicator: TA98, Metabolic Activation: MOUSE, LIVER, S-9, AROCLOR 1254, Method: STANDARD PLATE): inactive; negative | mutagenic call (Test System: AMES SALMONELLA TYPHIMURIUM, Strain/Indicator: TA98, Metabolic Activation: MOUSE, LIVER, S-9, Method: STANDARD PLATE): inactive; negative | mutagenic call (Test System: AMES SALMONELLA TYPHIMURIUM, Strain/Indicator: TA98, Metabolic Activation: NONE, Method: STANDARD PLATE): inactive; negative | mutagenic call (Test System: AMES SALMONELLA TYPHIMURIUM, Strain/Indicator: TA98, Metabolic Activation: PEA APICAL BUD S-9, Method: PREINCUBATION): inactive; negative | mutagenic call (Test System: AMES SALMONELLA TYPHIMURIUM, Strain/Indicator: TA98, Metabolic Activation: PEA APICAL BUD S-9, Method: STANDARD PLATE): inactive; negative | mutagenic call (Test System: AMES SALMONELLA TYPHIMURIUM, Strain/Indicator: TA98, Metabolic Activation: RAT, LIVER, S-9, AROCLOR 1254, Method: STANDARD PLATE): inactive; negative | mutagenic call (Test System: AMES SALMONELLA TYPHIMURIUM, Strain/Indicator: TA98, Metabolic Activation: RAT, LIVER, S-9, ETHANOL, Method: PREINCUBATION): inactive; negative | mutagenic call (Test System: AMES SALMONELLA TYPHIMURIUM, Strain/Indicator: TA98, Metabolic Activation: RAT, LIVER, S-9, PHENOBARBITAL, Method: PREINCUBATION): inactive; negative | mutagenic call (Test System: AMES SALMONELLA TYPHIMURIUM, Strain/Indicator: TA98, Metabolic Activation: RAT, LIVER, S-9, PYRAZOLE, Method: PREINCUBATION): inactive; negative | mutagenic call (Test System: AMES SALMONELLA TYPHIMURIUM, Strain/Indicator: TA98, Metabolic Activation: RAT, LIVER, S-9, Method: STANDARD PLATE): inactive; negative | mutagenic call (Test System: AMES SALMONELLA TYPHIMURIUM, Strain/Indicator: TA100(NR), Metabolic Activation: NONE, Method: PREINCUBATION): inactive; negative | mutagenic call (Test System: AMES SALMONELLA TYPHIMURIUM, Strain/Indicator: TA100(NR), Metabolic Activation: RAT, LIVER, S-9, AROCLOR 1254, Method: PREINCUBATION): inactive; negative | mutagenic call (Test System: AMES SALMONELLA TYPHIMURIUM, Strain/Indicator: TA100, Metabolic Activation: HAMSTER, LIVER, S-9, AROCLOR 1254, Method: STANDARD PLATE): inactive; negative | mutagenic call (Test System: AMES SALMONELLA TYPHIMURIUM, Strain/Indicator: TA100, Metabolic Activation: HAMSTER, LIVER, S-9, Method: STANDARD PLATE): inactive; negative | mutagenic call (Test System: AMES SALMONELLA TYPHIMURIUM, Strain/Indicator: TA100, Metabolic Activation: MOUSE, LIVER, S-9, AROCLOR 1254, Method: STANDARD PLATE): inactive; negative | mutagenic call (Test System: AMES SALMONELLA TYPHIMURIUM, Strain/Indicator: TA100, Metabolic Activation: MOUSE, LIVER, S-9, Method: STANDARD PLATE): inactive; negative | mutagenic call (Test System: AMES SALMONELLA TYPHIMURIUM, Strain/Indicator: TA100, Metabolic Activation: NONE, Method: STANDARD PLATE): inactive; negative | mutagenic call (Test System: AMES SALMONELLA TYPHIMURIUM, Strain/Indicator: TA100, Metabolic Activation: PEA APICAL BUD S-9, Method: PREINCUBATION): inactive; negative | mutagenic call (Test System: AMES SALMONELLA TYPHIMURIUM, Strain/Indicator: TA100, Metabolic Activation: PEA APICAL BUD S-9, Method: STANDARD PLATE): inactive; negative | mutagenic call (Test System: AMES SALMONELLA TYPHIMURIUM, Strain/Indicator: TA100, Metabolic Activation: RAT, LIVER, S-9, AROCLOR 1254, Method: PREINCUBATION): inactive; negative | mutagenic call (Test System: AMES SALMONELLA TYPHIMURIUM, Strain/Indicator: TA100, Metabolic Activation: RAT, LIVER, S-9, AROCLOR 1254, Method: STANDARD PLATE): inactive; negative | mutagenic call (Test System: AMES SALMONELLA TYPHIMURIUM, Strain/Indicator: TA100, Metabolic Activation: RAT, LIVER, S-9, ETHANOL, Method: PREINCUBATION): inactive; negative | mutagenic call (Test System: AMES SALMONELLA TYPHIMURIUM, Strain/Indicator: TA100, Metabolic Activation: RAT, LIVER, S-9, PHENOBARBITAL, Method: PREINCUBATION): inactive; negative | mutagenic call (Test System: AMES SALMONELLA TYPHIMURIUM, Strain/Indicator: TA100, Metabolic Activation: RAT, LIVER, S-9, PYRAZOLE, Method: PREINCUBATION): inactive; negative | mutagenic call (Test System: AMES SALMONELLA TYPHIMURIUM, Strain/Indicator: TA100, Metabolic Activation: RAT, LIVER, S-9, Method: STANDARD PLATE): inactive; negative | mutagenic call (Test System: AMES SALMONELLA TYPHIMURIUM, Strain/Indicator: TA102, Metabolic Activation: RAT, LIVER, S-9, AROCLOR 1254, Method: STANDARD PLATE): inactive; negative | mutagenic call (Test System: AMES SALMONELLA TYPHIMURIUM, Strain/Indicator: TA102, Metabolic Activation: RAT, LIVER, S-9, PYRAZOLE, Method: PREINCUBATION): inactive; negative | mutagenic call (Test System: AMES SALMONELLA TYPHIMURIUM, Strain/Indicator: TA1535, Metabolic Activation: HAMSTER, LIVER, S-9, AROCLOR 1254, Method: STANDARD PLATE): inactive; negative | mutagenic call (Test System: AMES SALMONELLA TYPHIMURIUM, Strain/Indicator: TA1535, Metabolic Activation: HAMSTER, LIVER, S-9, Method: STANDARD PLATE): inactive; negative | mutagenic call (Test System: AMES SALMONELLA TYPHIMURIUM, Strain/Indicator: TA1535, Metabolic Activation: MOUSE, LIVER, S-9, AROCLOR 1254, Method: STANDARD PLATE): inactive; negative | mutagenic call (Test System: AMES SALMONELLA TYPHIMURIUM, Strain/Indicator: TA1535, Metabolic Activation: MOUSE, LIVER, S-9, Method: STANDARD PLATE): inactive; negative | mutagenic call (Test System: AMES SALMONELLA TYPHIMURIUM, Strain/Indicator: TA1535, Metabolic Activation: NONE, Method: STANDARD PLATE): inactive; negative | mutagenic call (Test System: AMES SALMONELLA TYPHIMURIUM, Strain/Indicator: TA1535, Metabolic Activation: RAT, LIVER, S-9, AROCLOR 1254, Method: STANDARD PLATE): inactive; negative | mutagenic call (Test System: AMES SALMONELLA TYPHIMURIUM, Strain/Indicator: TA1535, Metabolic Activation: RAT, LIVER, S-9, PYRAZOLE, Method: PREINCUBATION): inactive; negative
